Target: mouse BK channel (mSlo) (Mus musculus, UniProt Q08460)
Format: cell-based

Sequence of mouse BK channel (mSlo) (Q08460 whole entry): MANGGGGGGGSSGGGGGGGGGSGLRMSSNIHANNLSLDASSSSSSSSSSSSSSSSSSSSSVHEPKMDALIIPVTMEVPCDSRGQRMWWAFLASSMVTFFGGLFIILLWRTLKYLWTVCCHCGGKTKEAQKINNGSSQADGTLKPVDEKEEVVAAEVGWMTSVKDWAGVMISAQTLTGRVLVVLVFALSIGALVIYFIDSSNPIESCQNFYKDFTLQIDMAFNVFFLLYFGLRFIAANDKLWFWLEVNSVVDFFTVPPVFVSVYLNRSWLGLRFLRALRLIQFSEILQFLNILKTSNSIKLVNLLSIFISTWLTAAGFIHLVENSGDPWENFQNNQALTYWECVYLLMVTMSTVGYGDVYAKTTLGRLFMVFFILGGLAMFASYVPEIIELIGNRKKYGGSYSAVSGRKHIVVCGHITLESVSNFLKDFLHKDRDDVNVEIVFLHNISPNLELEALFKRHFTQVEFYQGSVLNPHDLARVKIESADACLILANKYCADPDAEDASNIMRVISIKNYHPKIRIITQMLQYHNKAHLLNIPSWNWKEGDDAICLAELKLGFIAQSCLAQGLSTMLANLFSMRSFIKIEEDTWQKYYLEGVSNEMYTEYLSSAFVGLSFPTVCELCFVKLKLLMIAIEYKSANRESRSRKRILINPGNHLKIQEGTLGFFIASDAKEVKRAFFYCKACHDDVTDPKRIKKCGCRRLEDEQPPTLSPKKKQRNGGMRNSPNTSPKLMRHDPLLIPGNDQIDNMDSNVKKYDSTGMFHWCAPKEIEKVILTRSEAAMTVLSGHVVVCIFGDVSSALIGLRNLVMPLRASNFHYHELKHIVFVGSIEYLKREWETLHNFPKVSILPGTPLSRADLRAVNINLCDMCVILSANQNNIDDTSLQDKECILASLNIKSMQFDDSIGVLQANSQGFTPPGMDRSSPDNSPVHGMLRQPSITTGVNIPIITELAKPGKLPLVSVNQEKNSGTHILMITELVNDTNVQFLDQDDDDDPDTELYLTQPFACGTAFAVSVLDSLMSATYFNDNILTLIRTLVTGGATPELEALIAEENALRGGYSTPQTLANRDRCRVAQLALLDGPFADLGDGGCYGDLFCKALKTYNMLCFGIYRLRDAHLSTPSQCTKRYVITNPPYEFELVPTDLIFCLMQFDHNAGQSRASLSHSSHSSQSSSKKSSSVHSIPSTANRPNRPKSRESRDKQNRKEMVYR

## CCCC[N+](CCCC)(CCCC)CCCC [TBA, tetrabutylammonium]
  Kd: 628 µM

Source: PMC2151567 (The Journal of General Physiology, 2006)
